Target: T1, IC-GPCR2 (Homo sapiens, UniProt Q8TDV5)
T1 construct: expressed in transfected cells
T1 sequence (Q8TDV5 1-335 S309L): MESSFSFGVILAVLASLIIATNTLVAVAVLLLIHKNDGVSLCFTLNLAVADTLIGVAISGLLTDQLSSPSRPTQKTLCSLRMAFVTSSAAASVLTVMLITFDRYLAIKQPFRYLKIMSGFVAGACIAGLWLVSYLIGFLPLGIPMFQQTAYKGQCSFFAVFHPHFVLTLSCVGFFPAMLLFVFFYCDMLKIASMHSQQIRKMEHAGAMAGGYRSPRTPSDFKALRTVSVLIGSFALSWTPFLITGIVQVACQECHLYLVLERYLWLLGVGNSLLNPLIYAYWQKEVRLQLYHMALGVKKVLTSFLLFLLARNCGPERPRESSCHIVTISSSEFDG
Assay: Stimulation of cAMP in CHO cell line stably expressing IC-GPCR2 (HTRF cAMP dynamic kit)
Format: cell-based
Conditions: 3 μM compound; relative to maximal activity of 5-Ethyl-2-{4-[4-(4-tetrazol-1-yl-phenoxymethyl)-thiazol-2-yl]-piperidin-1-yl}-pyrimidine (=100%); IC-GPCR2 stably expressing CHO cells, 30 minutes
Procedure, shortened: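 CHO cells stably expressing IC-GPCR2, with parental CHO as counter-screen, were exposed to compound (0.00003–10 μM) for 30 min in Ham's F12. Intracellular cAMP read by HTRF competitive immunoassay (665/620 nm ratio). Activity at 3 μM expressed as % of maximal signal from a reference agonist.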

FC(F)(F)c1ccc(N2CCC(n3ncc(COc4ccc(-n5cnnn5)nc4)n3)CC2)nc1 [Example 82, 2-(4-(4-((6-(1H-tetrazol-1-yl)pyridin-3-yloxy)methyl)-2H-1,2,3-triazol-2-yl)piperidin-1-yl)-5-(trifluoromethyl)pyridine]
% activity at 3 μM: 64.90%

CC1CN(C(=O)OC(C)(C)C)CCC1n1ncc(COc2ccc(-n3cnnn3)nc2)n1 (stereo not drawn) [Example 83, tert-Butyl 4-(4-((6-(1H-tetrazol-1-yl)pyridin-3-yloxy)methyl)-2H-1,2,3-triazol-2-yl)-3-methylpiperidine-1-carboxylate]
% activity at 3 μM: 63.14%

CC1CN(c2ncc(C(F)(F)F)cn2)CCC1n1ncc(COc2ccc(-n3cnnn3)nc2)n1 (stereo not drawn) [Example 84, 2-(4-(4-((6-(1H-Tetrazol-1-yl)pyridin-3-yloxy)methyl)-2H-1,2,3-triazol-2-yl)-3-methylpiperidin-1-yl)-5-(trifluoromethyl)pyrimidine]
% activity at 3 μM: 78.05%

CCc1cnc(N2CCC(n3ncc(COc4ccc(-n5cnnn5)nc4)n3)C(C)C2)nc1 (stereo not drawn) [Example 85, 2-(4-(4-((6-(1H-Tetrazol-1-yl)pyridin-3-yloxy)methyl)-2H-1,2,3-triazol-2-yl)-3-methylpiperidin-1-yl)-5-ethylpyrimidine]
% activity at 3 μM: 76.12%

Cc1cnc(N2CCC(n3ncc(COc4ccc(-n5cnnn5)nc4)n3)C(C)C2)nc1 (stereo not drawn) [Example 86, 2-(4-(4-((6-(1H-Tetrazol-1-yl)pyridin-3-yloxy)methyl)-2H-1,2,3-triazol-2-yl)-3-methylpiperidin-1-yl)-5-methylpyrimidine]
% activity at 3 μM: 71.39%

CC1CN(c2ncc(Cl)cn2)CCC1n1ncc(COc2ccc(-n3cnnn3)nc2)n1 (stereo not drawn) [Example 87, 2-(4-(4-((6-(1H-Tetrazol-1-yl)pyridin-3-yloxy)methyl)-2H-1,2,3-triazol-2-yl)-3-methylpiperidin-1-yl)-5-chloropyrimidine]
% activity at 3 μM: 75.63%

Clc1cnc(N2CCC(n3ncc(COc4ccc(-n5cnnn5)cc4)n3)CC2)nc1 [Example 88, 2-(4-(4-((4-(1H-Tetrazol-1-yl)phenoxy)methyl)-2H-1,2,3-triazol-2-yl)piperidin-1-yl)-5-chloropyrimidine]
% activity at 3 μM: 60.96%

Cc1cc(-n2cnnn2)ccc1OCc1cnn(C2CCN(c3ncc(Cl)cn3)CC2)n1 [Example 89, 5-chloro-2-(4-(4-((2-Methyl-4-(1H-tetrazol-1-yl)phenoxy)methyl)-2H-1,2,3-triazol-2-yl)piperidin-1-yl)pyrimidine]
% activity at 3 μM: 48.60%

Cc1sc(OCc2cnn(C3CCN(c4ncc(Cl)cn4)CC3)n2)nc1-c1cccnc1 [Example 90, 2-((2-(1-(5-Chloropyrimidin-2-yl)piperidin-4-yl)-2H-1,2,3-triazol-4-yl)methoxy)-5-methyl-4-(pyridin-3-yl)thiazole]
% activity at 3 μM: 13.60%

Cc1sc(OCc2cnn(C3CCN(c4ncc(Cl)cn4)CC3)n2)nc1-c1ccncc1 [Example 91, 2-((2-(1-(5-Chloropyrimidin-2-yl)piperidin-4-yl)-2H-1,2,3-triazol-4-yl)methoxy)-5-methyl-4-(pyridin-4-yl)thiazole]
% activity at 3 μM: 5.82%

Clc1cnc(N2CCC(n3ncc(COc4ccc(-n5ccnn5)cc4)n3)CC2)nc1 [Example 92, 2-(4-(4-((4-(1H-1,2,3-Triazol-1-yl)phenoxy)methyl)-2H-1,2,3-triazol-2-yl)piperidin-1-yl)-5-chloropyrimidine]
% activity at 3 μM: 58.28%

Clc1cnc(N2CCC(n3ncc(COc4ccc(-n5cncn5)cc4)n3)CC2)nc1 [Example 93, 2-(4-(4-((4-(1H-1,2,4-Triazol-1-yl)phenoxy)methyl)-2H-1,2,3-triazol-2-yl)piperidin-1-yl)-5-chloropyrimidine]
% activity at 3 μM: 50.84%

Clc1cnc(N2CCC(n3ncc(COc4ccc(-n5ccnc5)cc4)n3)CC2)nc1 [Example 94, 2-(4-(4-((4-(1H-Imidazol-1-yl)phenoxy)methyl)-2H-1,2,3-triazol-2-yl)piperidin-1-yl)-5-chloropyrimidine]
% activity at 3 μM: 49.73%

CS(=O)(=O)c1ccc(OCc2cnn(C3CCN(c4ncc(Cl)cn4)CC3)n2)cc1 [Example 95, 5-Chloro-2-(4-(4-((4-(Methylsulfonyl)phenoxy)methyl)-2H-1,2,3-triazol-2-yl)piperidin-1-yl)pyrimidine]
% activity at 3 μM: 51.03%

Clc1cnc(N2CCC(n3ncc(COc4ccccc4-c4nnco4)n3)CC2)nc1 [Example 96, 5-Chloro-2-{4-[4-(2-[1,3,4]oxadiazol-2-yl-phenoxymethyl)-[1,2,3]triazol-2-yl]-piperidin-1-yl}-pyrimidine]
% activity at 3 μM: 28.90%

Clc1cnc(N2CCC(n3ncc(COc4ccc(Cl)nc4)n3)CC2)nc1 [Example 98, 5-Chloro-2-{4-[4-(6-chloro-pyridin-3-yloxymethyl)-[1,2,3]triazol-2-yl]-piperidin-1-yl}-pyrimidine]
% activity at 3 μM: 17.16%

O=C1CCCN1c1ccc(OCc2cnn(C3CCN(c4ncc(C(F)(F)F)cn4)CC3)n2)cc1 [Example 99, 1-(4-{2-[1-(5-Trifluoromethyl-pyrimidin-2-yl)-piperidin-4-yl]-2H-[1,2,3]triazol-4-ylmethoxy}-phenyl)-pyrrolidin-2-one]
% activity at 3 μM: 56.81%

FC(F)(F)c1cnc(N2CCC(n3ncc(COCc4ccccc4)n3)CC2)nc1 [Example 100, 2-[4-(4-benzyloxymethyl-[1,2,3]triazol-2-yl)-piperidin-1-yl]-5-trifluoromethyl-pyrimidine]
% activity at 3 μM: 10.69%

CC(C)COC(=O)N1CCC(n2ncc(COc3ccc(-n4cnnn4)cc3F)n2)CC1 [Example 101, Isobutyl 4-(4-((2-fluoro-4-(1H-tetrazol-1-yl)phenoxy)methyl)-2H-1,2,3-triazol-2-yl)piperidine-1-carboxylate]
% activity at 3 μM: 50.67%

O=C(OCc1ccccc1)N1CCC(n2ncc(COc3ccc(-n4cnnn4)cc3F)n2)CC1 [Example 102, Benzyl 4-(4-((2-fluoro-4-(1H-tetrazol-1-yl)phenoxy)methyl)-2H-1,2,3-triazol-2-yl)piperidine-1-carboxylate]
% activity at 3 μM: 38.98%

CC(C)COC(=O)N1CCC(n2ncc(COc3ccc(S(C)(=O)=O)cc3F)n2)CC1 [Example 103, Isobutyl 4-(4-((2-fluoro-4-(methylsulfonyl)phenoxy)methyl)-2H-1,2,3-triazol-2-yl)piperidine-1-carboxylate]
% activity at 3 μM: 51.30%

CS(=O)(=O)c1ccc(OCc2cnn(C3CCN(C(=O)OCc4ccccc4)CC3)n2)c(F)c1 [Example 104, Benzyl 4-(4-((2-fluoro-4-(methylsulfonyl)phenoxy)methyl)-2H-1,2,3-triazol-2-yl)piperidine-1-carboxylate]
% activity at 3 μM: 28.40%

CCOC(=O)c1cnc(N2CCC(n3ncc(COc4ccc(S(C)(=O)=O)cc4F)n3)CC2)nc1 [Example 105, Ethyl 2-(4-(4-((2-fluoro-4-(methylsulfonyl)phenoxy)methyl)-2H-1,2,3-triazol-2-yl)piperidin-1-yl)pyrimidine-5-carboxylate]
% activity at 3 μM: 10.65%

CCOC(=O)c1cnc(N2CCC(n3ncc(COc4ccc(-n5cnnn5)cc4F)n3)CC2)nc1 [Example 106, Ethyl 2-(4-(4-((2-fluoro-4-(1H-tetrazol-1-yl)phenoxy)methyl)-2H-1,2,3-triazol-2-yl)piperidin-1-yl)pyrimidine-5-carboxylate]
% activity at 3 μM: 11.46%

CS(=O)(=O)c1ccc(OCc2cnn(C3CCN(c4ncc(F)cn4)CC3)n2)c(F)c1 [Example 107, 5-Fluoro-2-(4-(4-((2-fluoro-4-(methylsulfonyl)phenoxy)methyl)-2H-1,2,3-triazol-2-yl)piperidin-1-yl)pyrimidine]
% activity at 3 μM: 36.83%

O=C(c1ccccn1)N1CCC(n2ncc(COc3ccc(-n4cnnn4)cc3F)n2)CC1 [Example 108, (4-(4-((2-Fluoro-4-(1H-tetrazol-1-yl)phenoxy)methyl)-2H-1,2,3-triazol-2-yl)piperidin-1-yl)(pyridin-2-yl)methanone]
% activity at 3 μM: 41.78%

O=C(c1cccc(O)n1)N1CCC(n2ncc(COc3ccc(-n4cnnn4)cc3F)n2)CC1 [Example 109, (4-(4-((2-Fluoro-4-(1H-tetrazol-1-yl)phenoxy)methyl)-2H-1,2,3-triazol-2-yl)piperidin-1-yl)(6-hydroxypyridin-2-yl)methanone]
% activity at 3 μM: 7.45%

O=C(c1ncccc1O)N1CCC(n2ncc(COc3ccc(-n4cnnn4)cc3F)n2)CC1 [Example 110, (4-(4-((2-Fluoro-4-(1H-tetrazol-1-yl)phenoxy)methyl)-2H-1,2,3-triazol-2-yl)piperidin-1-yl)(3-hydroxypyridin-2-yl)methanone]
% activity at 3 μM: 1.30%

Cc1cccnc1C(=O)N1CCC(n2ncc(COc3ccc(-n4cnnn4)cc3F)n2)CC1 [Example 111, (4-(4-((2-Fluoro-4-(1H-tetrazol-1-yl)phenoxy)methyl)-2H-1,2,3-triazol-2-yl)piperidin-1-yl)(3-methylpyridin-2-yl)methanone]
% activity at 3 μM: 24.12%

O=C(c1cccnc1)N1CCC(n2ncc(COc3ccc(-n4cnnn4)cc3F)n2)CC1 [Example 112, (4-(4-((2-Fluoro-4-(1H-tetrazol-1-yl)phenoxy)methyl)-2H-1,2,3-triazol-2-yl)piperidin-1-yl)(pyridin-3-yl)methanone]
% activity at 3 μM: 42.30%
